Experimental findings from patent US11680047B2, “Enhanced erythropoiesis and iron metabolism” (FibroGen, Inc., priority 2003, dated 2023) are described below.

Structures are written as SMILES.

The subject of experiment [1] is transferrin receptor. Description: Transferrin receptor expression by FACS (CD71-PE antibody) in HK-2 cells. To be noted: HK-2, 1 day. Format: cell-based. On the procedure:
(§1) The effect of compounds of the invention on transferrin receptor expression was examined as follows. Various cells (Hep3B, HepG2, HK-2) were incubated with compound A or compound B for 1 day. The cells were then analyzed for transferrin receptor expression by FACS analysis using CD71-PE antibody (Ancell, catalog no. 223-050).
Background: Flow cytometry measures light scatter and fluorescence of single cells or particles in a stream.

The subject of experiment [2] is EPO production. Description: Secreted EPO (ELISA) in Hep3B cells treated with IL-6. It counts as cell-based. The settings on record: for effect of compound treatment on EPO production in the presence of IL-6: compound plus IL-6. On the procedure:
Secreted EPO levels were determined using a commercially available ELISA kit (R&D Systems, catalog no. DEP00). […] As shown in FIGS. 27A and 27B, Hep3B cells treated with IL-6 increased EPO expression slightly above that in non-treated cells. Specifically, EPO levels in control cells was approximately 20 mIU/ml, while that in cells treated with 10 ng/ml IL-6 was approximately 50 mIU/ml.
Background: In an ELISA, binding on a coated surface is turned into a signal by an enzyme label.

In experiment [3] the test system is EPO production. The experiment is described as follows: Secreted EPO (ELISA) in Hep3B cells treated with IL-1β. Format: cell-based. The settings on record: for effect on suppression of EPO production by IL-1β: 2-hour pre-treatment with IL-1β, EPO 3 days after compound addition; for effect on inhibition of EPO production by IL-1β: compound in the presence of IL-1β (0.4-10 ng/ml); for effect on inhibition of EPO production by IL-1β / EPO production: 3 days; for EPO production: various concentrations of compound, absence of IL-1β. Here is the method:
(§2) Hep3B cells were treated with various concentrations (0, 0.4, 2, 10 ng/ml) of IL-1β in the absence or presence of compound A or compound B for 3 days. Secreted EPO levels were determined using a commercially available ELISA kit (R&D Systems, catalog no. DEP00). In the absence of compound, treatment of Hep3B cells with IL-1β reduced EPO production in a dose-dependent manner. […] Therefore, inhibitory effects of the inflammatory cytokine IL-1β on EPO production were overcome by inhibition of prolyl hydroxylase activity using compounds and methods of the present invention. […] Further, the methods and compounds of the present invention are useful to increase EPO production and, therefore, to treat anemia in a subject, for example, wherein the subject has a disorder associated with IL-1β such as acute or chronic inflammation or other anemia of chronic disease.
(§3) A series of experiments were performed to examine the effects of compounds of the present invention on EPO production following exposure of cells to the inflammatory cytokine IL-1β (i.e., in cells already exposed to IL-1β). In these experiments, IL-1β signaling would therefore be initiated prior to the addition of a prolyl hydroxylase inhibitor. Hep3B cells were treated with various concentrations (0, 0.4, 2, 10 ng/ml) of IL-1β for 2 hours, after which various concentrations of compound A or compound B were added to the cultured cells. Secreted EPO levels were determined as described above 3 days following compound addition.

Experiment [4] has as its system EPO production. Description: Secreted EPO (ELISA) in Hep3B cells treated with TNF-α. Format: cell-based. The settings on record: for effect on suppression of EPO production by TNF-α: 2-hour pre-treatment with TNF-α, EPO 3 days after compound addition; for effect on inhibition of EPO production by TNF-α: compound in the presence of TNF-α (0.4-10 ng/ml); for effect on inhibition of EPO production by TNF-α / EPO production: 3 days; for EPO production: various concentrations of compound, absence of TNF-α. On the procedure: as §2, with “ng/ml) of TNF-α in the” for “ng/ml) of IL-1β in the”, “cells with TNF-α reduced EPO” for “cells with IL-1β reduced EPO”, “inflammatory cytokine TNF-α on EPO” for “inflammatory cytokine IL-1β on EPO”, “associated with TNF-αQ such as” for “associated with IL-1β such as”
as §3, with “TNF-α” for “IL-1β”, “TNF-α).” for “IL-1β).”

The test system of the next experiment is NRAMP2. Description: NRAMP2 mRNA in small intestine of mice after IV administration (microarray). To be noted: 60 mg/kg IV, 4 hours. Format: in vivo, mouse. Here is the method: In another experiment, mRNA was isolated from small intestine harvested 4 hours following IV administration of 60 mg/kg compound A, compound B, and compound C to mice. Probes were prepared from each of two animals from 5 treatment groups, and hybridized to Affymetrix mouse MOE430Aplus2 microarrays (one animal per array). Statistical comparisons of data obtained from arrays from treated versus non-treated animals was performed. […] Expression levels are shown as fold-induction over control, untreated animals for each expressed gene.

Experiment [5] concerns transferrin receptor. The experiment is described as follows: Transferrin receptor expression by FACS (CD71-PE antibody) in Hep3B cells. It counts as cell-based. To be noted: 1 day. On the procedure: as §1
For experiment [6], the system named is transferrin receptor. Description: Transferrin receptor expression by FACS (CD71-PE antibody) in HepG2 cells. Format: cell-based. The settings on record: HepG2, 1 day. Here is the method: as §1
For the next experiment, the system named is VCAM-1. Description: TNF-α induced VCAM-1 expression in HUVEC. Format: cell-based, human. To be noted: TNF-α 1 ng/ml, 1 day. The text has this: Endothelial cell adhesiveness for lymphocytes occurs, in part, by endothelial cell expression of vascular cell adhesion molecule (VCAM)-1. VCAM-1 expression in endothelial cells is induced by various inflammatory cytokines, such as TNF-α. To investigate the effect of HIF prolyl hydroxylase inhibition on TNF-α induced VCAM-1 expression, HUVEC (human umbilical vein endothelial cells) were stimulated with TNF-α in the absence or presence of various concentrations of compound B or compound C for 1 day. VCAM expression was then measured.
Endothelial E-selectin belongs to the selectin family of cellular adhesion molecules mediating the initial attachment of leukocytes to vascular endothelial cells in inflammatory events. IL-1β, TNF-α, and lipopolysaccharides each induce the expression of E-selectin. (See, e.g., Bevilacqua et al. (1987) Proc Natl Acad Sci USA 84:9238-9242 and Bevilacqua and van Furth (1993) J Leukoc Biol 54:363-378.) To investigate the effect of HIF prolyl hydroxylase inhibition on TNF-α induced E-selectin expression, HUVECs were stimulated with 1 ng/ml TNF-α in the absence or presence of various concentrations of compound B or compound C for 1 day. E-selectin and VCAM expression were then measured.

The next experiment deals with E-selectin. The experiment is described as follows: IL-1β induced E-selectin expression in HUVEC. To be noted: 1 ng/ml IL-1β, 1 day. Format: cell-based, human. On the procedure: To investigate the effect of HIF prolyl hydroxylase inhibition on IL-1β induced E-selectin expression, HUVECs were stimulated with 1 ng/ml IL-1β in the absence or presence of various concentrations of compound B or compound C for 1 day. E-selectin expression was then measured.

The mark [7] stands for this setting: 10 µM compound, absence of IL-6.
The mark [8] stands for this setting: compound in the presence of 10 ng/ml IL-6.

`O=C(O)CNC(=O)c1nc(Cl)c2ccccc2c1O` [Compound A, [(1-Chloro-4-hydroxy-isoquinoline-3-carbonyl)-amino]-acetic acid]: the “Mean FL (transferrin receptor)” value in the experiment with transferrin receptor [1] is given as 12.20; in the experiment with transferrin receptor [5] it was 40.89; with transferrin receptor [6], 56.52. The EPO levels result is recorded as “approximately 60 mIU/ml” in the experiment on EPO production [2] (setting [7]), “approximately 270 mIU/ml” in the experiment on EPO production [2] (setting [8]) and “increased EPO levels in a dose-dependent manner” in the experiment on EPO production [2] (compound without IL-6). Besides, in the experiment with EPO production [2], the “effect of compound treatment on EPO production in the presence of IL-6” value was “synergistic”. Besides, in the experiment on EPO production [3], the “effect on suppression of EPO production by IL-1β” value is “overcame the suppressive effects of IL-1 on EPO production”. In the experiment on EPO production [3], the “effect on inhibition of EPO production by IL-1β” value is recorded as “greatly reduced the inhibitory effects of IL-1β on EPO production”. Moreover, the EPO production result in the experiment on EPO production [3] and in the experiment with EPO production [4] was “dose-dependent increase in EPO production” in each case. For the same compound, the “effect on suppression of EPO production by TNF-α” value in the experiment on EPO production [4] is “overcame the suppressive effects of TNF-α on EPO production”. In addition, the “effect on inhibition of EPO production by TNF-α” value with EPO production [4] was “greatly reduced the inhibitory effects of TNF-α on EPO production”. Also, the “NRAMP2 mRNA expression in small intestine” value with NRAMP2 is reported as “increasing expression of NRAMP2 in intestine”.

Turning to `O=C(O)CNC(=O)c1ncc2cc(Oc3ccccc3)ccc2c1O` [Compound B, [(4-Hydroxy-7-phenoxy-isoquinoline-3-carbonyl)-amino]-acetic acid], the “Mean FL (transferrin receptor)” value with transferrin receptor [1] came out at 18.92; in the experiment on transferrin receptor [5] it was 42.43; in the experiment on transferrin receptor [6], 53.53. The EPO levels in the experiment with EPO production [2] (setting [7]) is given as roughly 220 mIU/ml; with EPO production [2] (setting [8]), “greater than 400 mIU/ml”; in the experiment on EPO production [2] (compound without IL-6), “increased EPO levels in a dose-dependent manner”. Moreover, the “effect of compound treatment on EPO production in the presence of IL-6” value in the experiment on EPO production [2] is given as “synergistic”. Also, in the experiment with VCAM-1, the “inhibition of TNF-α induced VCAM-1 expression” value is reported as “does-dependent inhibition of TNF-α induced VCAM-1 expression”. The “effect on suppression of EPO production by IL-1β” value in the experiment on EPO production [3] was “overcame the suppressive effects of IL-1 on EPO production”. Further, the “effect on inhibition of EPO production by IL-1β” value in the experiment on EPO production [3] is “greatly reduced the inhibitory effects of IL-1β on EPO production”. Besides, the EPO production entry with EPO production [3] and in the experiment on EPO production [4] was “dose-dependent increase in EPO production” throughout. Besides, the “effect on suppression of EPO production by TNF-α” value in the experiment with EPO production [4] is “overcame the suppressive effects of TNF-α on EPO production”. Further, in the experiment with EPO production [4], the “effect on inhibition of EPO production by TNF-α” value is reported as “greatly reduced the inhibitory effects of TNF-α on EPO production”. In the experiment with E-selectin, the “inhibition of IL-1β induced E-selectin expression” value is “dose-dependent inhibition of IL-1β induced E-selectin expression”. Moreover, the “NRAMP2 mRNA expression in small intestine” value in the experiment on NRAMP2 is listed as “increasing expression of NRAMP2 in intestine”.
